Reference: patent US20100003302A1, “VASCULAR RESTENOSIS PREVENTING AGENT AND IMPLANTABLE INTRAVASCULAR DEVICE COATED THEREWITH” (priority 2001, published 2010)
Values belong to the molecule of their own block, whether it stands above or below them.

Legend:
[1] = tested on: vascular smooth muscles (HNB18E6E7 cell line); assay: Migration of vascular smooth muscle cells into fibrin gel containing N-chlorsuccinimide; format: cell-based, human; conditions: 37° C., 24 hours
Experimental: The vascular smooth muscles were collected from human vital arteries and established HNB18E6E7 was used as cell lines. The vascular smooth muscles were incubated in 6-well plates to produce confluent cultures. The resultant supernatant fluids were washed three time with warmed phosphate buffer solution (PBS) and softly added with 3 mg/mL of fibrinogen and 0.8 mL of Waymouth culture solution including 10 w/v % human serum. Then, the supernatant fluids were respectively added with N-chlorsuccinimide to adjust the final concentration of N-chlorsuccinimide to 0.08 mM, 0.8 mM, 8 mM and 80 mM, and gelled by addition of thrombin. The resultant gelled supernatants were incubated at 37° C. for 24 hours, and the numbers of the smooth muscle cells migrated into the gel was counted with a phase contrast microscope. For each concentration, the experiments were carried out to make n=3. The ordinate denotes the frequencies of migration of vascular smooth muscles into the gel, while the abscissa denotes the concentration of N-chlorsuccinimide.

[2] = tested on: right common iliac artery vascular injury model; assay: Neointimal formation in vascular injury model (right common iliac artery 3-times balloon injury); format: in vivo, rabbits; conditions: local administration by balloon immersed in 80 mM N-chlorsuccinimide vs PBS control; 4 weeks after treatment
Experimental: There were used a group of animals consisted of 5 (five) […] male rabbits aged 2 months. Vascular injury models were prepared by introducing a Fogarty catheter, Model e-060-2F, made by Baxter corporation (that is an arterial embolectomy balloon catheter) into the right common iliac artery through the right femoral artery under pentobarbital anesthesia, and then abrading the right common iliac artery 3 times under conditions of the balloon being inflated (balloon pressure: 0.5-1.0 atm). After injuring the vascular endothelium, hydrophilic balloons made by Boston Scientific Corporation, of an N-chlorsuccinimide-treated group prepared by immersing the balloons in 80 mM N-chlorsuccinimide, and of a control group prepared by immersing the balloons in PBS, were respectively inflated in the right common iliac arteries to locally administer the drug to each injured area. After 4 weeks from the treatment, the arteries were surgically removed, fixed with 10w/v % neutral buffered formalin fixative and then sectioned to prepare arterial ring tissue sections. After preparing elastic fiber stained tissue samples by EVG (Elastic Van Gieson) staining, the samples were subjected to measurements of intimal area (I) and medial area (M) to determine their ratio (I/M) as the degree of intimal thickening. […]

[3] = target: T1, α2-macroglobulin (Homo sapiens, UniProt P01023); assay: Deactivation of α2-macroglobulin (trypsin / coloring matrix S2222 assay, absorption at 405 nm); format: biochemical
T1 sequence (P01023 24-1474): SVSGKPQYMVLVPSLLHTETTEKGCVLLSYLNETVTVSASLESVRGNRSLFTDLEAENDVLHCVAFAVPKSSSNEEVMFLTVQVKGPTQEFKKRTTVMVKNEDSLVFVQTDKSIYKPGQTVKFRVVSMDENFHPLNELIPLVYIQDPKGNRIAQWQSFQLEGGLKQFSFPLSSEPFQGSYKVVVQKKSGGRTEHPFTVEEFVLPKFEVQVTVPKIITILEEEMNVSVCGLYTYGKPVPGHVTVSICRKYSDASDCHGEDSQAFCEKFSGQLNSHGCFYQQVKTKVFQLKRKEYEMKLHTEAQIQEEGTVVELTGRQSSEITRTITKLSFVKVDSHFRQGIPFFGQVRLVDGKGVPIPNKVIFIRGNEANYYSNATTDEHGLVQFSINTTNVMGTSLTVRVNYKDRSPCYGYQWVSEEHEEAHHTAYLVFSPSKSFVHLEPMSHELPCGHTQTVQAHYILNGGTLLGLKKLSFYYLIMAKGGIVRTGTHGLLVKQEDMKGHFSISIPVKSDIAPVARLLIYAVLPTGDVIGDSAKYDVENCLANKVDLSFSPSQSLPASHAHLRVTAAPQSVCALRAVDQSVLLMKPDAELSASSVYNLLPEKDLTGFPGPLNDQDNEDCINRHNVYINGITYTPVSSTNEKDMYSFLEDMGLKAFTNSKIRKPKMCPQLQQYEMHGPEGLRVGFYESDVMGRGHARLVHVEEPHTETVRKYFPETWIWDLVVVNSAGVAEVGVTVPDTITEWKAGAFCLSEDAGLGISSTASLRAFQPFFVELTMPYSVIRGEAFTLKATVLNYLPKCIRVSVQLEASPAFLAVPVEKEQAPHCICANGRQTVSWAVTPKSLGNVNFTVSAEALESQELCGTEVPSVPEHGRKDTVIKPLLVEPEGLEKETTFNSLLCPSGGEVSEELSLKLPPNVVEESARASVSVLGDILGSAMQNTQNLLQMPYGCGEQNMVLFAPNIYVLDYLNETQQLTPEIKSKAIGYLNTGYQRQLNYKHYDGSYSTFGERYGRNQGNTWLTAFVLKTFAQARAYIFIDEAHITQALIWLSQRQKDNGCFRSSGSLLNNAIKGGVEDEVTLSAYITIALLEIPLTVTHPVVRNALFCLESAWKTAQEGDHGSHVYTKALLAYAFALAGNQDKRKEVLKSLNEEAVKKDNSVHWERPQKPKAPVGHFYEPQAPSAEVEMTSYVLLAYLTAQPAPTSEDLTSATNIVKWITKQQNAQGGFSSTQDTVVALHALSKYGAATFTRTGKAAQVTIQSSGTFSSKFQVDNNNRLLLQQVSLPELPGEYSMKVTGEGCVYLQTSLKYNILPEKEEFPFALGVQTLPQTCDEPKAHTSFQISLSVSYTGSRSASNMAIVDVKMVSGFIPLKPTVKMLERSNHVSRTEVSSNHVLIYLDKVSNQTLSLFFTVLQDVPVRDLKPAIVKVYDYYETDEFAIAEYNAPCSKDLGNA
Experimental: Utilizing the facts that trypsin is inhibited by α2-macroglobulin and that trypsin causes yellow coloring of a coloring matrix S2222 resulting from decomposition thereof, verification was carried out for effects of methylamine, ethylamine, polyethyleneimines with molecular weights of 600 and 10000, tobramycin, ammonia, lysozyme chloride and polylysine on deactivation of α2-macroglobulin. A concrete method will be given below.
Firstly, each of methylamine, ethylamine, polyethyleneimines with molecular weights of 600 and 10000, tobramycin, ammonia, lysozyme chloride and polylysine was diluted to 0.0001 w/v %, 0.001 w/v %, 0.01 w/v %, 0.1 w/v % and 1 w/v % to prepare a series of diluted solutions as sample solutions. 50 μL of each sample solution was added with 50 μL of 2.5×10^−4 w/v % α2-macroglobulin and left for 5 minutes at room temperature. Then, the sample solution was added with 50 μL of a 5 w/v % trypsin EDTA solution, left for 5 minutes at room temperature, and then added with 10 μL of the coloring matrix S2222. After leaving the resultant sample solution for 20 minutes at room temperature, the sample solution was added with 50 μL of 10 w/v % acetic acid solution to stop reactions, and then subjected to measurement of absorption of light with a wave length of 405 nm, using 50 mM tris(hydroxymethyl)aminomethane buffer solution of pH 8.0 as the blank. The dilution of all the samples and agents was carried out by a 50 mM tris(hydroxymethyl)aminomethane buffer solution of pH 8.0. Results are shown in FIG. 5, in which the ordinate denotes the deactivation rate of α2-macroglobulin, and the abscissa denotes the concentrations of respective compounds.

[4] = compound concentration 0.1 w/v %

Molecule: O=C1CCC(=O)N1Cl [N-chlorsuccinimide]
number of migrating vascular smooth muscles ([1]; 80 mM N-chlorsuccinimide in fibrin gel): vanished completely
frequency of migration of the vascular smooth muscles into the gel ([1]; N-chlorsuccinimide 0.08, 0.8, 8 and 80 mM in fibrin gel, n=3): decreases apparently with increasing concentration
neointimal hyperplasia (degree of intimal thickening, I/M ratio) [2]: considerably inhibited

Molecule: CN [methylamine]
deactivation rate of α2-macroglobulin ([3]; compound concentration 1 w/v %): about 100%

deactivation rate of α2-macroglobulin [3, 4]: 100%
Molecule: lysozyme chloride

Molecule: polylysine
deactivation rate of α2-macroglobulin [3, 4]: 100%
